Results on eight compounds are retold here after patent publication US20110274657A1, “OXADIAZOLE DERIVATIVES AS S1P1 RECEPTOR ANTAGONISTS” (priority 2009, published 2011).

The experiment concerns the target S1P1 receptors (Homo sapiens, UniProt P21453). Nature of the experiment: 35S-GTPyS binding assay. Type of experiment: biochemical. The conditions noted are these: 35S-GTPyS binding to membranes, 90 min at room temperature; 10 μM S1P used as 100% maximum efficacy. As to the method: The effect of the compounds was measured using a 35S-GTPyS binding assay. Briefly, membranes were incubated in a buffer containing 20 mM HEPES pH 7.4, 100 mM NaCl, 10 mM MgCl2, 10 μM GDP, 50 μg/mL saponin and 0.2% fatty acid-free BSA at various concentrations (0.1 nM-10 μM) and 0.1 nM 35S-GTPyS. 10 μM S1P was used as 100% maximum efficacy. The assay was incubated for 90 min at room temperature with gentle mixing, and terminated by filtrating the reaction mixture through GF/C filter plates using the Manifold Filtration System. The filters were immediately washed with sodium phosphate pH 7.4 buffer. After drying the filter plates scintillant liquid were added to each well and 35S-GTPyS binding was measured on a Trilux Scintillation Counter.

S1P1 receptors, sequence (P21453 whole entry): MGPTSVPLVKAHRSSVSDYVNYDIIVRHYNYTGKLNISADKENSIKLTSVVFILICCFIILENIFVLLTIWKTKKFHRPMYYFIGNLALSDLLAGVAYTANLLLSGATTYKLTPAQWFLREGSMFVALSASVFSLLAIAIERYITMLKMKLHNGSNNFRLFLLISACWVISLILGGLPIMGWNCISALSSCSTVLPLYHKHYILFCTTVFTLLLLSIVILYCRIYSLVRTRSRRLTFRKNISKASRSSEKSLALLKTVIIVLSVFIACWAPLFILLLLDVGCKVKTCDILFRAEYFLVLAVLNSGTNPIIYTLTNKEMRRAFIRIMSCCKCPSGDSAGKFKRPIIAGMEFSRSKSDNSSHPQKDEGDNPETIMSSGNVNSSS

As usually defined, the EC50 is the concentration at which the effect is half-maximal. The low end stands for greater potency, the high end for weaker potency. `Cc1cc(-c2noc(-c3cncc4c3CCC(C)(C)C4)n2)cc(C)c1CCN1CC(C(=O)O)C1` [Example 25, 1-(4-(5-(7,7-dimethyl-5,6,7,8-tetrahydroisoquinolin-4-yl)-1,2,4-oxadiazol-3-yl)-2,6-dimethylphenethyl)azetidine-3-carboxylic acid] gave an EC50 of 36.7 nM.

As for `CCc1ncc(-c2nc(-c3cc(C)c(CCN)c(C)c3)no2)c2c1CC(C)(C)CC2` [Example 7, 2-(4-(5-(1-ethyl-7,7-dimethyl-5,6,7,8-tetrahydroisoquinolin-4-yl)-1,2,4-oxadiazol-3-yl)-2,6-dimethylphenyl)ethanamine], the concentration for a half-maximal effect (EC50) is 10.8 nM.

Regarding `Cc1cc(-c2noc(-c3cnc(N(C)C)c4c3CCC(C)(C)C4)n2)cc(C)c1CC(O)CO` (centres unmarked) [Example 37, 3-(4-{5-[1-(dimethylamino)-7,7-dimethyl-5,6,7,8-tetrahydroisoquinolin-4-yl]-1,2,4-oxadiazol-3-yl}-2,6-dimethylphenyl)propane-1,2-diol], the EC50 was 21.7 nM. Against the preceding compound, the EC50 is about 2-fold higher.

As for `CNc1ncc(-c2nc(-c3cc(C)c(OCCN)c(C)c3)no2)c2c1CC(C)(C)CC2` [Example 36, 4-{3-[4-(2-aminoethoxy)-3,5-dimethylphenyl]-1,2,4-oxadiazol-5-yl}-N,7,7-trimethyl-5,6,7,8-tetrahydroisoquinolin-1-amine], the response was half-maximal at 16.4 nM (EC50).

For the compound `Cc1cc(-c2noc(-c3cncc4c3CCC(C)(C)C4)n2)cc(C)c1CC(O)CO` (centres unmarked) [Example 22, 3-(4-(5-(7,7-dimethyl-5,6,7,8-tetrahydroisoquinolin-4-yl)-1,2,4-oxadiazol-3-yl)-2,6-dimethylphenyl)propane-1,2-diol], a half-maximal response (EC50) required 19 nM.

Consider `CCc1ncc(-c2nc(-c3cc(C)c(CCC(N)=O)c(C)c3)no2)c2c1CC(C)(C)CC2` [Example 6, 3-(4-(5-(1-ethyl-7,7-dimethyl-5,6,7,8-tetrahydroisoquinolin-4-yl)-1,2,4-oxadiazol-3-yl)-2,6-dimethylphenyl)propanamide], for which the midpoint of the response, the EC50, lay at 29 nM.

In turn, `Cc1cc(-c2noc(-c3cnc(C4CC4)c4c3CCC(C)(C)C4)n2)cc(C)c1CCC(=O)O` [Example 8, 3-(4-(5-(1-cyclopropyl-7,7-dimethyl-5,6,7,8-tetrahydroisoquinolin-4-yl)-1,2,4-oxadiazol-3-yl)-2,6-dimethylphenyl)propanoic acid] yielded an EC50 of 28.5 nM.

`Cc1cc(-c2noc(-c3cncc4c3CCC(C)(C)C4)n2)cc(C)c1CCNCC(F)F` [Example 24, N-(4-(5-(7,7-dimethyl-5,6,7,8-tetrahydroisoquinolin-4-yl)-1,2,4-oxadiazol-3-yl)-2,6-dimethylphenethyl)-2,2-difluoroethanamine] registered a concentration for a half-maximal effect (EC50) of 19.4 nM.
